From PubChem BioAssay (NCI)
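Cells were grown in 96-well plates and exposed to each compound for 48 hours at five concentrations; endpoints were interpolated linearly between bracketing concentrations, or set to the highest concentration if not reached. GI50 is the concentration that inhibits growth by half. TGI is the concentration that stops growth completely.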 Where a SMILES comes first, the peptide text is derived from it. The star is where a group is joined. Palmitoyl = CCCCCCCCCCCCCCCC(=O)*

Key:
Assay in all cases: NCI anticancer screen, dose series, 48 h
DU-145 prostate = system: DU-145 prostate
HS 578T breast = system: HS 578T breast
MCF7 breast = system: MCF7 breast
MDA-MB-231 breast = system: MDA-MB-231 breast
MDA-MB-435 = system: MDA-MB-435
MDA-N = system: MDA-N
PC-3 prostate = system: PC-3 prostate
T-47D breast = system: T-47D breast
786-0 renal = system: 786-0 renal
DMS 273 small cell lung = system: DMS 273 small cell lung
HOP-18 NSCLC = system: HOP-18 NSCLC
LXFL 529 NSCLC = system: LXFL 529 NSCLC
M19-MEL melanoma = system: M19-MEL melanoma

## CON(C)c1nc(N(C)OC)nc(N(C)OC)n1
DU-145 prostate
  TGI: > 10 µM
HS 578T breast
  TGI: > 10 µM
MCF7 breast
  TGI: > 10 µM
MDA-MB-231 breast
  TGI: > 10 µM
MDA-MB-435
  TGI: > 10 µM
MDA-N
  TGI: > 10 µM
PC-3 prostate
  TGI: > 10 µM
T-47D breast
  TGI: > 10 µM

## Nc1nc(O)c2ncn([C@H]3CC[C@@H](CO)O3)c2n1
DU-145 prostate
  TGI: > 100 µM
HS 578T breast
  TGI: > 100 µM
MCF7 breast
  TGI: > 100 µM
MDA-MB-435
  TGI: > 100 µM
MDA-N
  TGI: > 100 µM
PC-3 prostate
  TGI: > 100 µM
T-47D breast
  TGI: > 100 µM

## COC(=O)C1=C(OC(=O)/C(=C/c2ccc(Cl)cc2)c2ccc(Cl)cc2)C(C(=O)OC)[C@]2(O)[C@@H](C(=O)OC)[C@H]1C[C@@H](c1ccccc1)[C@@H]2C(=O)OC (some centres undefined)
DU-145 prostate
  TGI: > 100 µM
MDA-MB-231 breast
  TGI: > 100 µM
MDA-MB-435
  TGI: > 100 µM
MDA-N
  TGI: > 100 µM
PC-3 prostate
  TGI: > 100 µM
T-47D breast
  TGI: > 100 µM

## CC(N)Cc1ccc(Cl)c(Cl)c1 (centres undefined)
786-0 renal
  TGI: > 100 µM
DMS 273 small cell lung
  TGI: > 71.9 µM
HOP-18 NSCLC
  TGI: > 77.1 µM
LXFL 529 NSCLC
  TGI: 34.9 µM
M19-MEL melanoma
  TGI: 47 µM

## Cc1c(-c2ccccc2)[nH]c2cc(Cl)ccc2c1=O
DU-145 prostate
  TGI: > 100 µM
HS 578T breast
  TGI: 65.6 µM
MCF7 breast
  TGI: > 100 µM
MDA-MB-231 breast
  TGI: > 100 µM
MDA-MB-435
  TGI: > 100 µM
MDA-N
  TGI: > 100 µM
T-47D breast
  TGI: > 100 µM

## C/C(=N/N=C(\[O-])c1ccncc1)C(F)(F)F.C/C(=N\N=C(/[O-])c1ccncc1)C(F)(F)F.[Ni+2]
DU-145 prostate
  GI50: > 1 µM
  TGI: > 1 µM
T-47D breast
  GI50: > 1 µM
  TGI: > 1 µM

## COc1cc(C(C)O)c[n+](Cc2ccccc2)c1 (centres undefined)
786-0 renal
  TGI: > 100 µM
DMS 273 small cell lung
  TGI: > 100 µM
HOP-18 NSCLC
  TGI: > 100 µM
LXFL 529 NSCLC
  TGI: > 100 µM
M19-MEL melanoma
  TGI: > 100 µM

## Nc1[nH]c(=O)nc2c1cnn2C1CCCCO1 (centres undefined)
DMS 273 small cell lung
  TGI: > 100 µM
HOP-18 NSCLC
  TGI: > 100 µM
LXFL 529 NSCLC
  TGI: > 100 µM

## CC(C)C(C(=O)O)N1C(=O)c2ccccc2C1=O (centres undefined)
786-0 renal
  TGI: > 100 µM
DU-145 prostate
  TGI: > 100 µM
HS 578T breast
  TGI: > 100 µM
MCF7 breast
  TGI: > 100 µM
MDA-MB-231 breast
  TGI: > 100 µM
MDA-MB-435
  TGI: > 100 µM
MDA-N
  TGI: > 100 µM
PC-3 prostate
  TGI: > 100 µM
T-47D breast
  TGI: > 100 µM

## CCN1CCC(O)(/C=C/c2ccccc2C)C(C(=O)/C=C/c2ccccc2C)C1 (centres undefined)
DU-145 prostate
  TGI: 4.05 µM
HS 578T breast
  TGI: 16.2 µM
MCF7 breast
  TGI: 7.37 µM
MDA-MB-231 breast
  TGI: 7.11 µM
MDA-MB-435
  TGI: 7.04 µM
MDA-N
  TGI: 8.88 µM
PC-3 prostate
  TGI: 4.05 µM
T-47D breast
  TGI: 4.32 µM

## CC12C=CC(=O)C=C1CCC1C3CCC(O)(C(=O)CO)C3(C)CC(O)C12F (centres undefined)
786-0 renal
  TGI: > 100 µM
DMS 273 small cell lung
  TGI: > 100 µM
DU-145 prostate
  TGI: > 100 µM
HS 578T breast
  TGI: > 100 µM
LXFL 529 NSCLC
  TGI: > 100 µM
M19-MEL melanoma
  TGI: > 100 µM
MCF7 breast
  TGI: > 100 µM
MDA-MB-231 breast
  TGI: > 100 µM
MDA-MB-435
  TGI: > 100 µM
MDA-N
  TGI: > 100 µM
PC-3 prostate
  TGI: > 100 µM
T-47D breast
  TGI: > 100 µM

## CN1C(c2ccccc2)CC(=O)C(N)C1c1ccccc1 (centres undefined)
786-0 renal
  TGI: 97.7 µM
DMS 273 small cell lung
  TGI: > 61.7 µM
HOP-18 NSCLC
  TGI: > 100 µM
LXFL 529 NSCLC
  TGI: 37.5 µM
M19-MEL melanoma
  TGI: 55.5 µM

## c1ccc(-c2nc(N3CCNCC3)c3oc(-c4ccccc4)nc3n2)cc1
DU-145 prostate
  GI50: 1.88 µM
  TGI: 3.33 µM
HS 578T breast
  GI50: 1.88 µM
  TGI: 4.07 µM
MCF7 breast
  GI50: 1.48 µM
  TGI: 3.31 µM
MDA-MB-231 breast
  GI50: 1.76 µM
  TGI: 3.28 µM
MDA-MB-435
  GI50: 1.65 µM
  TGI: 3.12 µM
T-47D breast
  GI50: 2.1 µM
  TGI: 4.95 µM

## CCCC1CCC(=C2C(=O)CCC2=O)O1 (centres undefined)
786-0 renal
  TGI: > 100 µM
DU-145 prostate
  TGI: > 100 µM
HS 578T breast
  TGI: > 100 µM
MCF7 breast
  TGI: > 100 µM
MDA-MB-231 breast
  TGI: > 100 µM
MDA-MB-435
  TGI: > 100 µM
MDA-N
  TGI: > 100 µM
PC-3 prostate
  TGI: > 100 µM
T-47D breast
  TGI: > 100 µM

## C=C(C)C1Cc2c(c3ccccc3n(C)c2=O)O1 (centres undefined)
HOP-18 NSCLC
  TGI: > 100 µM
LXFL 529 NSCLC
  TGI: > 100 µM
M19-MEL melanoma
  TGI: > 100 µM

## CCCCCCCCCCCCCCCC(=O)N1CCCC1C(=O)NCC(=O)NC(Cc1ccccc1)C(=O)NC(C)C(=O)NC(CO)C(=O)NC(Cc1ccc(O)cc1)C(=O)NC(CCCCN)C(=O)NC(CC(C)C)C(=O)NC(CCCN=C(N)N)C(=O)N1CCCC1C(=O)NCC(N)=O (centres undefined) (Palmitoyl-PGFASYKLRPG-NH2; configuration not given here)
DU-145 prostate
  GI50: 15.7 µM
  TGI: 43.6 µM
HS 578T breast
  GI50: 39.7 µM
  TGI: > 100 µM
MCF7 breast
  GI50: 18.2 µM
  TGI: 42.8 µM
MDA-MB-231 breast
  GI50: 12.5 µM
  TGI: 26.5 µM
MDA-MB-435
  GI50: 14 µM
  TGI: 54.5 µM
T-47D breast
  GI50: 17.4 µM
  TGI: 39.6 µM

## Cn1c(-c2ccccc2)cc(-c2cccs2)c1-c1cccs1
DMS 273 small cell lung
  TGI: > 100 µM
HOP-18 NSCLC
  TGI: > 100 µM
M19-MEL melanoma
  TGI: > 100 µM
MCF7 breast
  TGI: > 100 µM
